Results on two compounds are retold here after US12097262B2, “mTORC1 inhibitors” (THE REGENTS OF THE UNIVERSITY OF CALIFORNIA, priority 2014, dated 2024).

Data set [1] relates to mTORC1 and mTORC2. Description: Western blot analysis of mTORC1/mTORC2 inhibition in MCF-7 cells. The class given is cell-based. The note with it: 4 hours, western blot (FIG. 13A). How it is done: FIGS. 13A-13B. FIG. 13A: MCF-7 cells were treated for 4 hours with E1035 and M1071 before harvesting. FIG. 13B: SNU-449 cells were treated with 3 hours with E1010 before harvesting. Cells were lysed and blotted for the indicated proteins. M1071 has the narrowest concentration range between mTORC1 and mTORC2 inhibition. The concentration range between mTORC1 and mTORC2 inhibition widens for E1035.
Cell Culture and Western Blot Analysis. Cells were grown in 6-well plates and treated with inhibitor at the indicated concentrations or with vehicle (0.1% DMSO). Treated cells were lysed, and lysates were resolved by SDS-PAGE, transferred to nitrocellulose and blotted. All antibodies were purchased from Cell Signaling Technology.
For orientation: Immunoblotting shows a protein as a band on a membrane.

Data set [2] concerns MCF-7 cells. Kind of data set: Cell proliferation assay (CellTiter-Glo, 72 h), MCF-7 cells. The class given is cell-based. The following applies: 72 hours (FIG. 14B). How it is done:
FIGS. 14A-14B. FIG. 14A: 786-O cells were treated for 72 hours with the indicated drugs before cell viability was measured. […] FIG. 14B: MCF-7 cells were treated for 72 hours with the indicated drugs before cell viability was measured.
Cell proliferation assays. Cells grown in 96-well plates were treated with inhibitor in triplicate or vehicle (0.1% DMSO). After 72 h, cell viability was assessed with the […]-GLO® Luminescent Cell Viability Assay (Promega). Cell proliferation curves were generated using Prism.
A general note: In ATP-based viability assays light output follows the ATP content of the culture.

In data set [3] the test system is 786-O. Description: Cell viability assay (CellTiter-Glo), 786-O. The class given is cell-based, human. The following applies: Homo sapiens; for EC50: 786-0, 72 h after compound treatment.
Procedure: (§1) The cells were grown in appropriate medium (vender recommended) supplemented with 10% heat-inactivated fetal bovine serum (FBS), in tissue culture dishes placed in a humidified incubator maintained at 37° C. in an atmosphere of 5% CO2 and 95% air.
(§2) Cell viability assay. Cells were seeded in a 96-multiwell plate at 3000-4000 cells per well in medium containing FBS and cells were incubated at 37° C. overnight. After 18-20 h, compounds in 10×DMSO solution (n=3) were added to the cells and were incubated for additional 3 days in a humidified incubator in an atmosphere of 5% CO2 and 95% air. After treatment of Cell Titer-Glo® luminescent cell viability assay reagent (Promega Corporation, Madison, WI USA), the luminescence value was recorded using SpectraMax M5 Multi-Mode Microplate Readers (Molecular Devices, LLC, Sunnyvale, CA USA). Concentration response curves were generated on GraphPad Prism (GraphPad Software, La Jolla, CA USA) by calculating the decrease in luminescence values in compound-treated samples relative to the DMSO controls.
(§3) Anti-proliferative effects of compounds were evaluated in human colorectal cancer HCT-15 cells (mutation: KRAS, PIK3CA), human hepatocellular carcinoma SNU-449 (mutation: TP53, CDKN2A), SNU-398 (mutation: CTNNB 1), SNU-182 (mutation: TP53) and renal adenocarcinoma 786-O (mutation: VHL, PTEN, TP53, CDKN2A) in 72 h after compound treatment.
For data set [4], the system named is mTORC1 and mTORC2 downstream signaling (pS6, p4E-BP1, pAkt S473). Description: Downstream signaling of mTOR by immunoblotting, dose dependence, HCT-15 and SNU-449 cells. The following applies: immunoblot at 3 h after compound treatment. The class given is cell-based, human.
Procedure: Downstream signaling of mTOR was tested using an immunoblotting method at 3 h after compound treatment.
Data set [5] concerns phospho-4E-BP1, pS6, phospho-S473 of Akt in 786-O xenograft tumor. Kind of data set: Pharmacodynamic study in human renal cancer 786-O xenograft tumor in mice. The class given is in vivo. How it is done:
Pharmacodynamic studies of M1071 in human renal cancer 786-O xenograft tumor in mice. […] Tumor samples were collected at 3 h after drug administration. For the MWF group, M-1071 was administered once daily every other day. At 4 h after the last administration, tumor samples were collected. After the freezing tumor samples, they were homogenized and treated with RIPA buffer containing phosphatase inhibitor and protease inhibitor. The following western blotting analysis were conducted in a similar way to abovementioned method.
A general note: Xenograft models place foreign cells or tissue in a host animal.

Data set [6] has as its system mTORC1 and mTORC2 signaling (pS6, p4E-BP1, pAkt S473). Kind of data set: Time-course effects on mTORC1 and mTORC2 signaling in SNU-449. The class given is cell-based, human. The note with it: 0.33-24 h. As to the method: Cellular Signaling Effects of Class mTOR Inhibitors. Cells were seeded in 60 mm cell culture dishes and incubated 1-2 days until 70-90% confluency. Cells were treated with compound solution in DMSO (1000×) and incubated at 37° C. in a 5% CO2 humidified incubator for a given length of time. Whole cell lysates were prepared using RIPA buffer (R^3792) (TEKnova, Hollister, CA USA) with a phosphatase inhibitor cocktail tablet PhosStop and a protease inhibitor cocktail tablet cOmplete Mini (Roche Diagnostics GmbH, Mannheim, Germany). Cell lysates (based on a certain amount of protein determined by Pierce BCA Protein Assay Kit (PI-23225) (Thermo Fisher Scientific Inc., Waltham, MA USA)) were electrophoresed using a Criterion Tris-HCl gel 4-20% (Bio-Rad Laboratories, Hercules, CA USA) and transferred to a nitrocellulose membrane (162-0115) (Bio-Rad Laboratories, Hercules, CA USA). After incubation for more than 1 h with a blocking buffer at room temperature, membranes were labeled with primary antibodies by overnight incubation at 4° C., followed by 1 hour incubation with horseradish peroxidase-conjugated (HRP-conjugated) secondary antibodies at room temperature. The following antibodies were used for immunoblot: phospho-Akt (S473) (#9271), phospho-Akt (T308) (#2965), total-Akt (#9272), phospho-S6 (Ser240/Ser244) (#2215L), S6 ribosomal protein (#2217), phospho-4E-BP1 (T37/T46) (#2855), total 4E-BP1 (#9644) (Cell Signaling Technology, Inc., Danvers, MA USA), FKBP12 (sc-28814) mouse β-actin (sc-8432) (Santa Cruz Biotechnology, Inc., Dallas, Texas USA), anti-rabbit IgG conjugated with horseradish peroxidase (HRP) (#7074), and anti-mouse IgG conjugated with HRP (#7076) (Cell Signaling Technology, Inc., Danvers, MA USA). Nitrocellulose membranes were exposed with SuperSignal® West Pico Chemiluminescent Substrate or Femto Maximum Sensitivity Substrate (Thermo Fisher Scientific Inc., Waltham, MA USA) and signals were recorded on a CL-Xposure film (Thermo Fisher Scientific Inc., Waltham, MA USA).

For data set [7], the system named is SNU-398. Kind of data set: Cell viability assay (CellTiter-Glo), SNU-398. Format: cell-based, human. The following applies: Homo sapiens; for EC50: 72 h after compound treatment.
Procedure: as §1, §2, §3
Data set [8] relates to SNU-449. Description: Cell viability assay (CellTiter-Glo), SNU-449. The following applies: Homo sapiens; for EC50: SNU-449, 72 h, read-out: EC50 (nM) SNU-449.
Procedure: as §1, §2, §3
A short description of data set [9]: Effect on blood glucose level in mice. The note with it: mice (n=3), intraperitoneal, 1, 3 mg/kg.
Source text: Effect on blood glucose level. […] Blood glucose levels (mg/dL) were monitored.
In data set [10] the test system is SNU-182. Description: Cell viability assay (CellTiter-Glo), SNU-182. Format: cell-based, human. The following applies: Homo sapiens; for EC50: 72 h after compound treatment.
Procedure: as §1, §2, §3
The subject of data set [11] is HCT-15. Kind of data set: Cell viability assay (CellTiter-Glo), HCT-15. The note with it: Homo sapiens; for EC50: 72 h after compound treatment. The class given is cell-based, human.
Procedure: as §1, §2, §3
Data set [12] deals with TORC1 and TORC2 outputs (p4E-BP1, pS6). Kind of data set: Drug washout experiment in SNU-449 cells. Format: cell-based, human. The note with it: 30 nM for 3 h, then washout. How it is done: Cellular Signaling Effects of Class mTOR Inhibitors. Cells were seeded in 60 mm cell culture dishes and incubated 1-2 days until 70-90% confluency. Cells were treated with compound solution in DMSO (1000×) and incubated at 37° C. in a 5% CO2 humidified incubator for a given length of time. […] After incubation for more than 1 h with a blocking buffer at room temperature, membranes were labeled with primary antibodies by overnight incubation at 4° C., followed by 1 hour incubation with horseradish peroxidase-conjugated (HRP-conjugated) secondary antibodies at room temperature. […] Nitrocellulose membranes were exposed with SuperSignal® West Pico Chemiluminescent Substrate or Femto Maximum Sensitivity Substrate (Thermo Fisher Scientific Inc., Waltham, MA USA) and signals were recorded on a CL-Xposure film (Thermo Fisher Scientific Inc., Waltham, MA USA).
Drug Washout Experiment. SNU-449 cells were treated with 30 nM of compounds for 3 h. The medium was aspirated out and cells were washed with fresh 10% FBS in RPMI1640 medium. Then, cells were incubated with fresh 10% FBS in RPMI1640 medium at 37° C. for described time period.

For data set [13] the following is noted: clinical trials; cited from earlier work.

On to `CO[C@H]1C[C@@H]2CC[C@@H](C)[C@@](O)(O2)C(=O)C(=O)N2CCCC[C@H]2C(=O)O[C@H]([C@H](C)C[C@@H]2CC[C@@H](OCCOCc3cn(CCOCCOCCOCCOCCOCCOCCOCCOCCC(=O)NCCCCn4nc(-c5ccc6oc(N)nc6c5)c5c(N)ncnc54)nn3)[C@H](OC)C2)CC(=O)[C@H](C)/C=C(\C)[C@@H](O)[C@@H](OC)C(=O)[C@H](C)C[C@H](C)/C=C/C=C/C=C/1C` [Compound M-1071, 40-O-(2-((1-(32-(4-amino-3-(2-aminobenzo[d]oxazol-5-yl)-1H-pyrazolo[3,4-d]pyrimidin-1-yl)-27-oxo-3,6,9,12,15,18,21,24-octaoxa-28-azadotriacontyl)-1H-1,2,3-triazol-4-yl)methoxy)ethyl)-rapamycin], for which, in data set [1], the “concentration range between mTORC1 and mTORC2 inhibition” value was “narrowest”. Further, in [1], the mTORC2 inhibition result was “also inhibits mTORC2”. Also, the “effects on cell proliferation” value in [2] is listed as “potent effects on cell proliferation”. In addition, the EC50 in [3], in data set [7], in data set [8], in data set [10] and in data set [11] was less than 10 nM in each case. The inhibition – broadly, the drop in the measured response relative to a control, in per cent – at 10 µM in [3] (786-0, read-out: % inhibition at 10 μM 786-O, 10 μM) lay in the range of 25 to 50%; in data set [7] (read-out: % inhibition at 10 μM SNU-398, 10 μM), 50 to 100%; in [8] (SNU-449, read-out: % inhibition at 10 μM SNU-449), 25 to 50%; in data set [10] (read-out: % inhibition at 10 μM SNU-182, 10 μM) it was 25 to 50%; in [11] (read-out: % inhibition at 10 μM HCT-15, 10 μM), 50 to 100%. In addition, in data set [4], the “mTORC1/2 downstream inhibition (pS6, p4E-BP1 and pAkt S473)” value was “stronger inhibition of mTORC1 signaling (pS6 and p4E-BP1) compared to mTORC2 downstream Akt S473 phosphorylation”. In addition, the p4E-BP1 inhibition result in [4] is listed as “complete p4E-BP1 inhibition at drug concentrations in which pAkt S473 is not inhibited”. Moreover, the “inhibition of pS6 and p4EBP-1 in tumor” value in [5] (5 mg/kg) is recorded as “complete inhibition”. The “inhibition of phospho-S473 of Akt in tumor” value in data set [5] (highest dosing of 5 mg/kg) is recorded as “slight”. The “Phosphorylation of S6 in tumor” value in [5] (intraperitoneal) is on record as “inhibited”. The “inhibition against phospho-4E-BP1 in tumor” value in [5] (intraperitoneal, tumor collected 3 h after administration) was “dose dependent inhibition”. Besides, the “p4E-BP1 inhibition, time course” value in [6] is “continuous complete inhibition of TORC1 outputs within 3-24 h”. Further, in data set [6], the “phosphorylation of Akt S473, time course” value was “transient feedback activation on Akt S473 at 1 and 3 h, and then a slight inhibition was observed at 24 h”. The blood glucose level entry in data set [9] was “no increase in blood glucose levels”. The “sustained inhibitory effect on p4E-BP1 after washout” value in [12] was “at least 2 h”. Further, in data set [12], the “sustained inhibitory effect on pS6 after washout” value was “at least 4 h”.
In the case of `CC(C)n1nc(-c2ccc3oc(N)nc3c2)c2c(N)ncnc21` [MLN0128, reference compound], the EC50 (usually the concentration that produces a half-maximal response) was in the range of 50 to 100 nM in data set [3]; 10 to 50 nM in data set [7]; 10 to 50 nM in data set [8]; 50 to 100 nM in data set [10]; 50 to 100 nM in data set [11]. For the same compound, the dose limiting toxicity entry in data set [13] is “Grade ≥3 hyperglycemia”. Besides, in data set [4], the “mTORC1/2 downstream inhibition (pS6, p4E-BP1 and pAkt S473)” value is listed as “pan-mTORC1/2 downstream inhibition”. Besides, in data set [6], the “p4E-BP1 inhibition, time course” value is “completely inhibited p4E-BP1 in early onset (0.33-1 h) and then partial phosphorylation of 4E-BP1 was observed after 3 h to 24 h”. Also, in [6], the “phosphorylation of Akt S473, time course” value is on record as “blocked phosphorylation of pAkt S473 continuously during 0.33-24 h”. Moreover, in data set [12], the “time until inhibitory effects disappeared after washout” value is no more than 1 h.
